Measured values published in patent US6458194B1, “Azo dye compound having 1,2,4-triazole as the azo component” (Fuji Photo Film Co., Ltd., priority 1999, dated 2002).

How the values were obtained:
Format in all cases: physicochemical
[1] = Color fastness against light, Xe lamp irradiation of recorded image; conditions: Xe lamp 17,000 lux, 3 days; portion with initial reflection density 1.0
Excerpt: Next, the thermal transfer image accepting materials after such recording were irradiated with a Xe lamp (17,000 lux) for 3 days to evaluate the color fastness. More specifically, a portion showing a status-A reflection density of 1.0 before the irradiation was again measured for the status-A reflection density after the irradiation, which was expressed in a residual rate (in percent) to the pre-irradiation reflection density.

[2] = Absorption characteristic in ethyl acetate
Excerpt: FIG. 1 is a spectrum chart showing an absorption characteristic in ethyl acetate of Compound 9 of the present invention where optical density of the transmitted light through a cell having the light path length of 1 cm is 1.0. Wave lengths giving the maximum absorption (λmax) are 428 nm for Compound 9, 440 nm for Compound 18, 438 nm for Compound 31, 442 nm for Compound 32, 435 nm for Compound 33 and 434 nm for Compound 3.

[3] = Suitability in ink production (solubility of coating composition for dye donating layer)
Excerpt: Suitability in Ink Production:
∘ coating composition for the thermal transfer dye donating layer has a good solubility;
Δ time-consuming heating is necessary to dissolve the coating composition for the thermal transfer dye donating layer; and
X incomplete solubilization of the coating composition for the thermal transfer dye donating layer having a undissolved portion of the dye crystal.

SMILES	Color Fastness (residual rate of status-A reflection density) [1]	Wave length giving the maximum absorption (λmax) [2]	Suitability for ink production (in words) [3]
CSc1nsc(N=Nc2c(C(C)(C)C)nn3nc(C(C)CN4C(=O)C=CC4=O)[nH]c23)n1 (stereo not drawn) [Compound 25]	90%		
CSc1nsc(N=Nc2c(-c3ccccc3)nn3nc(C(C)C)[nH]c23)n1 [Compound 7]	90%		
CC(C)c1nn2nc(-c3ccccc3Cl)c(N=Nc3nc(-c4ccccc4)ns3)c2[nH]1 [Compound 9]	92%	428 nm	
CCS(=O)(=O)c1nsc(N=Nc2c(C(C)(C)C)nn3nc(C(C)C)[nH]c23)n1 [Compound 32]	93%	442 nm	
CCSc1nsc(N=Nc2c(C)nn3c(C(C)(C)C)n[nH]c23)n1 [Comparative Compound “a”, reference compound]	89%		inferior
CCSc1nsc(N=Nc2c(C)nn3nc(C)[nH]c23)n1 [Compound 3]		434 nm	
CCSc1nsc(N=Nc2c(C(C)(C)C)nn3nc(C(C)C)[nH]c23)n1 [Compound 31]	90%	438 nm	
CCS(=O)(=O)c1nsc(N=Nc2c(-c3ccccc3Cl)nn3nc(C(C)C)[nH]c23)n1 [Compound 18]	91%	440 nm	
COc1ccc(-c2nsc(N=Nc3c(C(C)(C)C)nn4nc(C(C)C)[nH]c34)n2)cc1 [Compound 20]	88%		
CCCc1nn2nc(C(C)(C)C)c(N=Nc3nc(SC)ns3)c2[nH]1 [Compound 5]	91%		
CSc1nsc(N=Nc2c(C(C)(C)C)nn3nc(C(C)CN4C(=O)c5ccccc5C4=O)[nH]c23)n1 (stereo not drawn) [Compound 15]	89%		
Cc1nn2nc(C(C)C)c(N=Nc3nc(-c4ccccc4)ns3)c2[nH]1 [Compound 21]	87%		
CCSc1nsc(/N=N/c2c(-c3ccccc3Cl)nn3nc(C(C)C)[nH]c23)n1 [Compound 34]	91%		
Cc1nn2nc(C(C)(C)C)c(N=Nc3nc(-c4ccccc4)ns3)c2[nH]1 [Compound 10]	90%		
CSc1nsc(N=Nc2c(C(C)(C)C)nn3nc(C(C)C)[nH]c23)n1 [Compound 4]	90%		
CCOc1nn2nc(C)[nH]c2c1N=Nc1nc(-c2ccc(C(F)(F)F)cc2)ns1 [Compound 11]	88%		
